Laboratory results as given in ChEMBL document CHEMBL1146270, “Identification of potent and selective TACE inhibitors via the S1 pocket” (Bioorg Med Chem Lett, 2007).

Key:
Interstitial collagenase = molecular target: T1, Interstitial collagenase (Homo sapiens, UniProt P03956); assay: Inhibition of MMP1
T1 sequence (P03956 whole entry): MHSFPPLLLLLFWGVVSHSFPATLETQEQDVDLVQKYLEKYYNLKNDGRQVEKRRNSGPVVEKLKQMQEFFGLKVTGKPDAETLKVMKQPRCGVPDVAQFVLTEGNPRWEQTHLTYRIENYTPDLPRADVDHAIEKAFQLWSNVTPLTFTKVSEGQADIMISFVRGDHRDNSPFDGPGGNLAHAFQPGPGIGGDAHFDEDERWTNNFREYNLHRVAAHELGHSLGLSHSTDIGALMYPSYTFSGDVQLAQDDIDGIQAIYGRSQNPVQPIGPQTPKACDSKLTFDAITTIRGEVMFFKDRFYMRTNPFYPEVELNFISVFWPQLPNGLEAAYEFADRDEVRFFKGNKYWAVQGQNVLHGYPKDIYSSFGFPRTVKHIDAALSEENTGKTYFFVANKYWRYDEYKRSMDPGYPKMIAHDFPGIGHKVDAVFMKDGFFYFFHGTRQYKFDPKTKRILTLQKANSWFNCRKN

[1] = molecular target: 72 kDa type IV collagenase (Homo sapiens, UniProt P08253); assay: Inhibition of MMP2
Sequence of 72 kDa type IV collagenase (P08253 whole entry): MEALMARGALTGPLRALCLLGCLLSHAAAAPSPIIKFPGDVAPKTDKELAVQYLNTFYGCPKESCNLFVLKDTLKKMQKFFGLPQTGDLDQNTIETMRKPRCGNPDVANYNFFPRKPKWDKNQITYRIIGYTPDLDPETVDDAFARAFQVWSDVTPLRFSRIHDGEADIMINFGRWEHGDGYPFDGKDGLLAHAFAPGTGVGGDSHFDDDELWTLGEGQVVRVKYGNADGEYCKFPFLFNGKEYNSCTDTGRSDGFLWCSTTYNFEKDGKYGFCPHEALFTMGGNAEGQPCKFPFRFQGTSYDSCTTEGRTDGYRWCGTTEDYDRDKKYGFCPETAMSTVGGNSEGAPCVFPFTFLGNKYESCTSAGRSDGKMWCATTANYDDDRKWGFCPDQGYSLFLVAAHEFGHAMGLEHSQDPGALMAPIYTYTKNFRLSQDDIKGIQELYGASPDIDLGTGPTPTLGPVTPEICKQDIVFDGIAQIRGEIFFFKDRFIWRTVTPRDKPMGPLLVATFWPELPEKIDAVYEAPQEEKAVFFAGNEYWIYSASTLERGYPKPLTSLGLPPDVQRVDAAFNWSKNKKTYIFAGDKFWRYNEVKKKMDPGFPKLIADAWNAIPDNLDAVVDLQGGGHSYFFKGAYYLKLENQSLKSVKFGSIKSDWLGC

Stromelysin-1 = Stromelysin-1 (Homo sapiens, UniProt P08254); assay: Inhibition of MMP3
Sequence of Stromelysin-1 (P08254 whole entry): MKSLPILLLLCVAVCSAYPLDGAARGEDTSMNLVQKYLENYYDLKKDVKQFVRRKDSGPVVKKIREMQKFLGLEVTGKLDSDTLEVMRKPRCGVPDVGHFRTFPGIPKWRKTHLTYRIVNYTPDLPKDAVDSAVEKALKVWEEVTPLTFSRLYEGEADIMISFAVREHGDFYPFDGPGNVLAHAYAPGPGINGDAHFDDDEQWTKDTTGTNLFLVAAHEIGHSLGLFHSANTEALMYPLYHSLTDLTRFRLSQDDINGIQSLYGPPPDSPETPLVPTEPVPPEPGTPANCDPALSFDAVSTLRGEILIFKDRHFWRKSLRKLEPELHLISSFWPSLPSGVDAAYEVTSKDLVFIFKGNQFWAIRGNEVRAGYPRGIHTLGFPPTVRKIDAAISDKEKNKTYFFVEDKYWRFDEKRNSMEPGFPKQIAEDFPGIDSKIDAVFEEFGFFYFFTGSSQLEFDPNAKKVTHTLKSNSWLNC

[2] = molecular target: Matrix metalloproteinase-9 (Homo sapiens, UniProt P14780); assay: Inhibition of MMP9
Sequence of Matrix metalloproteinase-9 (P14780 whole entry): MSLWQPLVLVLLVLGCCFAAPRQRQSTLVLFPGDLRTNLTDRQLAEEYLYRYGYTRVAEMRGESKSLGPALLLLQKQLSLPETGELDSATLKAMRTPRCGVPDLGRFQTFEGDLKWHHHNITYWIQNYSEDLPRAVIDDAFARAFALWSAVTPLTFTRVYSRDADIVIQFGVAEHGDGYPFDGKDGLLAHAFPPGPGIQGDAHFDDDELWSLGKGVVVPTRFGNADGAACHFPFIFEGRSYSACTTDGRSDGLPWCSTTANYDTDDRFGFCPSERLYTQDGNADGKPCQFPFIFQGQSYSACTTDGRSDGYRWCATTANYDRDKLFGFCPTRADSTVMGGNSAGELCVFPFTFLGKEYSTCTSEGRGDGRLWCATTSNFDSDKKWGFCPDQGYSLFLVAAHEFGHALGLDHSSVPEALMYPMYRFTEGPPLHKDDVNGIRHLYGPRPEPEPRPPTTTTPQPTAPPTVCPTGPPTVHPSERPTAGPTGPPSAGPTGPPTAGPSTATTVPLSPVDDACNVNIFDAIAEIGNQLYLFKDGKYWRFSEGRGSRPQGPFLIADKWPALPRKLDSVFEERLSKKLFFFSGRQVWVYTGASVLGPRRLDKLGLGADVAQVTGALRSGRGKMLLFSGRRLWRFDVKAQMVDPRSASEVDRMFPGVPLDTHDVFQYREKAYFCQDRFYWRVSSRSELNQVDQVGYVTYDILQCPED

Collagenase 3 = Collagenase 3 (Homo sapiens, UniProt P45452)
[3] = molecular target: T2, Disintegrin and metalloproteinase domain-containing protein 17 (Homo sapiens, UniProt P78536); assay: Inhibition of TACE
T2 sequence (P78536 whole entry, the tested form may be a part): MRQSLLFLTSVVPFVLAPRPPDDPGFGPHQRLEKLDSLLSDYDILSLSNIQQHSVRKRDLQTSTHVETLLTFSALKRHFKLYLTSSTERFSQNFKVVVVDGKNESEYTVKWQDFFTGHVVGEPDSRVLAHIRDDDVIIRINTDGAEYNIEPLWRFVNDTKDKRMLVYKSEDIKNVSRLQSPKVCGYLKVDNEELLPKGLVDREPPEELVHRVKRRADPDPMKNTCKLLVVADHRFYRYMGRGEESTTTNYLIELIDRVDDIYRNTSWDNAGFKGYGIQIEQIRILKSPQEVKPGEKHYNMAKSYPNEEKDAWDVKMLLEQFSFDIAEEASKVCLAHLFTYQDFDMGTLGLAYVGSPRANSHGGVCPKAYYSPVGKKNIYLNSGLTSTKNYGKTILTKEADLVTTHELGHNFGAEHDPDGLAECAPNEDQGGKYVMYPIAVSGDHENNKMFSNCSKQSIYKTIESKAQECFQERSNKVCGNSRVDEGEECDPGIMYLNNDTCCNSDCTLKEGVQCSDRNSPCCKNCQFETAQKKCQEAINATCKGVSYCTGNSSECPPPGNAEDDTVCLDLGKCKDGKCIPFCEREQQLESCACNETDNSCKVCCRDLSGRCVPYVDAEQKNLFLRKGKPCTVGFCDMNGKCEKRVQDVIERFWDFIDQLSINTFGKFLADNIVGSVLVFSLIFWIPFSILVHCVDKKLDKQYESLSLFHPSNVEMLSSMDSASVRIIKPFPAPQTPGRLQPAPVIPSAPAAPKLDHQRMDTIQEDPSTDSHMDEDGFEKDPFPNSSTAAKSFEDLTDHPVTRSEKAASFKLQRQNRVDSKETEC

[4] = molecular target: Matrix metalloproteinase-14 (Homo sapiens, UniProt P50281); assay: Inhibition of MMP14
[5] = molecular target: T2, Disintegrin and metalloproteinase domain-containing protein 17
Description: Inhibition of TACE in human whole blood assay

| IC50 (Interstitial collagenase) | IC50 (Stromelysin-1) | IC50 [2] | IC50 [4] | Compound | IC50 [1] | IC50 (Collagenase 3) | IC50 [3] | IC50 [5] |
| --- | --- | --- | --- | --- | --- | --- | --- | --- |
| 30000 nM | 141 nM | 10300 nM | – | Cc1cc(COc2ccc([C@]3(C)CCN([C@H](C)C(=O)NO)C3=O)cc2)c2ccccc2n1 | 2050 nM | 1420 nM | – | – |
| – | – | – | – | CC#CCOc1ccc(S(=O)(=O)CC2(C(=O)NO)CCN(S(=O)(=O)N(C)C)CC2)cc1 | 61.3 nM | 229 nM | 1.8 nM | – |
| – | – | – | – | CC#CCOc1ccc(S(=O)(=O)CC2(C(=O)NO)CCN(S(=O)(=O)N3CCOCC3)CC2)cc1 | 51 nM | 195 nM | 1 nM | – |
| – | – | – | – | CC#CCOc1ccc(S(=O)(=O)CC2(C(=O)NO)CCN(S(=O)(=O)N3CCCCC3)CC2)cc1 | 51 nM | 144 nM | 1.2 nM | – |
| – | – | – | – | CC#CCOc1ccc(S(=O)(=O)CC2(C(=O)NO)CCN(S(=O)(=O)N3CCN(C(C)=O)CC3)CC2)cc1 | 20 nM | 104 nM | 1.5 nM | – |
| – | – | – | – | CC#CCOc1ccc(S(=O)(=O)CC2(C(=O)NO)CCN(S(=O)(=O)N3CCC[C@H]3COC)CC2)cc1 | 58 nM | 190 nM | 1.5 nM | – |
| – | – | – | – | CC#CCOc1ccc(S(=O)(=O)CC2(C(=O)NO)CCN(S(=O)(=O)N3CCC[C@@H]3CO)CC2)cc1 | 172 nM | 354 nM | 1.4 nM | – |
| 2680 nM | – | 920 nM | 14800 nM | CC#CCOc1ccc(S(=O)(=O)CC2(C(=O)NO)CCN(Cc3c(Cl)cncc3Cl)CC2)cc1 | 555 nM | 259 nM | – | – |
| – | – | – | – | CC#CCOc1ccc(S(=O)(=O)CC2(C(=O)NO)CCN(S(=O)(=O)C(C)(C)C)CC2)cc1 | 73 nM | 238 nM | < 1 nM | – |
| – | – | – | – | CC#CCOc1ccc(S(=O)(=O)CC2(C(=O)NO)CCN(S(=O)(=O)CC3CCCCC3)CC2)cc1 | 11 nM | 72 nM | < 1 nM | – |
| – | – | – | – | CC#CCOc1ccc(S(=O)(=O)CC2(C(=O)NO)CCN(S(=O)(=O)CCN3CCOCC3)CC2)cc1 | 37 nM | 43 nM | 2.2 nM | – |
| – | – | – | – | CC#CCOc1ccc(S(=O)(=O)CC2(C(=O)NO)CCN(S(=O)(=O)C(C)CN3CCOCC3)CC2)cc1 (stereo unspecified) | 37 nM | 130 nM | 1.4 nM | – |
| – | – | – | – | CC#CCOc1ccc(S(=O)(=O)CC2(C(=O)NO)CCN(S(=O)(=O)C3CCCC3)CC2)cc1 | 54 nM | 155 nM | 1.3 nM | – |
| – | – | – | – | CC#CCOc1ccc(S(=O)(=O)CC2(C(=O)NO)CCN(S(=O)(=O)C3CCCCC3)CC2)cc1 | 4 nM | 24.4 nM | 2.8 nM | – |
| – | – | – | – | CC#CCOc1ccc(S(=O)(=O)CC2(C(=O)NO)CCN(c3ccccn3)CC2)cc1 | 62.6 nM | 205 nM | 1.33 nM | – |
| – | – | – | – | CC#CCOc1ccc(S(=O)(=O)CC2(C(=O)NO)CCN(c3ccncc3)CC2)cc1 | 2060 nM | 2040 nM | 5.6 nM | – |

| IC50 (Interstitial collagenase) | IC50 (Stromelysin-1) | IC50 [2] | IC50 [4] | Compound | IC50 [1] | IC50 (Collagenase 3) | IC50 [3] | IC50 [5] |
| --- | --- | --- | --- | --- | --- | --- | --- | --- |
| – | – | – | – | CC#CCOc1ccc(S(=O)(=O)CC2(C(=O)NO)CCN(c3nc4ccccc4n3C)CC2)cc1 | 176 nM | 166 nM | < 1 nM | – |
| – | – | – | 24000 nM | CC#CCOc1ccc(S(=O)(=O)CC2(C(=O)NO)CCN(S(=O)(=O)c3c(C)noc3C)CC2)cc1 | 664 nM | 2280 nM | – | – |
| – | – | – | – | CC#CCOc1ccc(S(=O)(=O)CC2(C(=O)NO)CCN(S(=O)(=O)c3cn(C)c(C)n3)CC2)cc1 | 19 nM | 147 nM | 3 nM | – |
| – | – | – | – | CC#CCOc1ccc(S(=O)(=O)CC2(C(=O)NO)CCN(S(=O)(=O)c3ccc(Cl)s3)CC2)cc1 | 33 nM | – | 7 nM | – |
| – | – | – | – | CC#CCOc1ccc(S(=O)(=O)CC2(C(=O)NO)CCN(S(=O)(=O)c3cc(Cl)sc3Cl)CC2)cc1 | 22 nM | 23 nM | < 1 nM | – |
| – | – | – | 583 nM | CC#CCOc1ccc(S(=O)(=O)CC2(C(=O)NO)CCN(C(=O)c3ccncc3)CC2)cc1 | – | 21.5 nM | 2.6 nM | – |
| 201 nM | – | – | – | CC#CCOc1ccc(S(=O)(=O)N2CCSC(C)(C)C2C(=O)NO)cc1 (stereo unspecified) | – | – | 9 nM | – |
| – | – | – | – | CC#CCOc1ccc(S(=O)(=O)CC2(C(=O)NO)CCN(S(=O)(=O)c3nc(C)sc3C)CC2)cc1 | 32 nM | 38 nM | < 1 nM | – |
| – | – | – | – | CC#CCOc1ccc(S(=O)(=O)CC2(C(=O)NO)CCN(S(=O)(=O)N3CCCC3)CC2)cc1 | 31 nM | 117 nM | 1 nM | – |
| – | – | – | – | CC#CCOc1ccc(S(=O)(=O)CC2(C(=O)NO)CCN(C(=O)c3c(Cl)cncc3Cl)CC2)cc1 | 183 nM | 449 nM | 1.7 nM | 1300 nM |
| – | – | – | – | CC#CCOc1ccc(S(=O)(=O)CC2(C(=O)NO)CCN(S(=O)(=O)Cc3ccncc3)CC2)cc1 | 82 nM | 295 nM | 2 nM | – |
| – | – | – | – | CC#CCOc1ccc(S(=O)(=O)CC2(C(=O)NO)CCN(S(=O)(=O)C(CC)CC)CC2)cc1 | 58 nM | 136 nM | 1.2 nM | – |
| – | – | – | – | CC#CCOc1ccc(S(=O)(=O)CC2(C(=O)NO)CCN(S(=O)(=O)C3CC3)CC2)cc1 | 161 nM | 1160 nM | 1.6 nM | – |
| – | – | – | – | CC#CCOc1ccc(S(=O)(=O)CC2(C(=O)NO)CCN(c3nc4ccccc4o3)CC2)cc1 | 40 nM | 56 nM | 1.1 nM | – |
| – | – | – | – | CC#CCOc1ccc(S(=O)(=O)CC2(C(=O)NO)CCN(S(=O)(=O)c3c(C)nn(C)c3C)CC2)cc1 | 99.5 nM | 385 nM | < 1 nM | – |
| – | 1500 nM | 90000 nM | – | Cc1cc(COc2ccc(S(=O)(=O)CC(CC3CCN(C(C)(C)C)CC3)N(O)C=O)cc2)c2ccccc2n1 (stereo unspecified) | 5000 nM | 4000 nM | 12 nM | – |
